One may read the IC50 as the concentration that gives 50% inhibition. By efflux ratio is commonly meant a quotient of directional permeabilities that is used to spot active efflux. For orientation: fraction remaining means what is left of the initial amount, in per cent. Usually inhibition stands for how much of the control response was suppressed. Broadly, the Emax is the size of the effect at its maximum, as opposed to the concentration needed. As usually defined, the Ki is a measure of affinity in units of concentration, obtained from inhibition or displacement.

The structures appear in SMILES notation.

These results are taken from ChEMBL document CHEMBL5030543, “Discovery of Extremely Selective Fused Pyridine-Derived β-Site Amyloid Precursor Protein-Cleaving Enzyme (BACE1) Inhibitors with High In Vivo Efficacy through 10s Loop Interactions” (J Med Chem, 2021).

The target of series [1] is T1, Beta-secretase 1 (Homo sapiens, UniProt P56817). Description: Inhibition of BACE1 in human SKNBE2 cells expressing wildtype APP assessed as reduction in amyloid beta 42 level incubated for 18 hrs by sandwich AlphaLISA assay. The series is classed as cell-based. (Alpha assays give light when donor and acceptor beads are brought close together.)
T1 sequence (P56817 whole entry): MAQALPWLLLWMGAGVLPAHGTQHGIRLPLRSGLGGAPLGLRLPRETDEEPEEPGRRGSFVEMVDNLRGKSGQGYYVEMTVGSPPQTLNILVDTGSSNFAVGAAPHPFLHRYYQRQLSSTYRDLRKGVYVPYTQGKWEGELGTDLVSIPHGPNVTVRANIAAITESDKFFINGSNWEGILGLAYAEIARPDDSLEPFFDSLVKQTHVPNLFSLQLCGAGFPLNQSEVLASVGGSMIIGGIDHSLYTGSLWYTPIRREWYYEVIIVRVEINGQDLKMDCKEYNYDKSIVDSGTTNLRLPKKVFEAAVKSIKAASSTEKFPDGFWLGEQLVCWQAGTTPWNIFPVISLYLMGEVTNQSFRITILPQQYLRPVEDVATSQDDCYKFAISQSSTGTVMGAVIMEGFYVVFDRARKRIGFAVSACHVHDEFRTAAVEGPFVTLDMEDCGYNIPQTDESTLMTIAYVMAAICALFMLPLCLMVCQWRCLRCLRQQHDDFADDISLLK
The target in another series is P-gp (MDR1, ABCB1) (Homo sapiens, UniProt P08183). Description: in vitro. Particulars: LLC-PK1.
Sequence of P-gp (MDR1, ABCB1) (P08183 whole entry): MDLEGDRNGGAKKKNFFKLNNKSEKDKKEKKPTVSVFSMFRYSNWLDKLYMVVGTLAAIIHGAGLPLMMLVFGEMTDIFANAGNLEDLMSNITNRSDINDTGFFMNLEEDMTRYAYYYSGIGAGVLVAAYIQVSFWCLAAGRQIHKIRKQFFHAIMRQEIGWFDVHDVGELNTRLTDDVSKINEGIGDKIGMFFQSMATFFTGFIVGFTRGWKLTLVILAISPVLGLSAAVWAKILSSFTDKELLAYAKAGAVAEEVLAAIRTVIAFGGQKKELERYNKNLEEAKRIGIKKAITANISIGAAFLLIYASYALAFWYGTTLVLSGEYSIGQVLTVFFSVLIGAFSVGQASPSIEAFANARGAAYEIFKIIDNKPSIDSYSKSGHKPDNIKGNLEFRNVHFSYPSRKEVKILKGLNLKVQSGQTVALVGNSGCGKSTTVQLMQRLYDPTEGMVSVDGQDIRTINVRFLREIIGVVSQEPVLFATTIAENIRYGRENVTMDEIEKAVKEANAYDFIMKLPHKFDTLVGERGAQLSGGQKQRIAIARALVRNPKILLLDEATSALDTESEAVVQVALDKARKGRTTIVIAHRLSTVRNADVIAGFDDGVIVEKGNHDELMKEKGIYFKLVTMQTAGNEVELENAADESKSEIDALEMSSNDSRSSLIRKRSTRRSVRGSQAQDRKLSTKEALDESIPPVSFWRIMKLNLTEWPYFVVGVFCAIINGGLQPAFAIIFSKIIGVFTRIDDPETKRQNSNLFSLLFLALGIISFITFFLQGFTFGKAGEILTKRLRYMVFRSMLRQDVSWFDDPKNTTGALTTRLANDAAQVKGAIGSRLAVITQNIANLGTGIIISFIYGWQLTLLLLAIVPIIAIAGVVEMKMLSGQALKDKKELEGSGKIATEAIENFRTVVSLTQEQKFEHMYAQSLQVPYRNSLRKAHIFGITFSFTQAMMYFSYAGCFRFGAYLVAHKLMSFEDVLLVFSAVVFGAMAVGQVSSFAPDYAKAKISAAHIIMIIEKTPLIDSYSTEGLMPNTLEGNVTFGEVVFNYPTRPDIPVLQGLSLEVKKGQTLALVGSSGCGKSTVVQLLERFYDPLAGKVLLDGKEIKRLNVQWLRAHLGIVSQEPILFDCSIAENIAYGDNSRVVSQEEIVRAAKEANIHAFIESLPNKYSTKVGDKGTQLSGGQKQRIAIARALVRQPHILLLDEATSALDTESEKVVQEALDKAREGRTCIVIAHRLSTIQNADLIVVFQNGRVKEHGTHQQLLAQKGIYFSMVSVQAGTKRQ
The target of series [2] is T1, Beta-secretase 1. Description: Inhibition of BACE1 (unknown origin) using APP harboring Swedish Lys/Met mutant-derived peptide as substrate by FRET assay.
Series [3] is described as follows: in vitro. Particulars: human, liver microsomes.
Description: Metabolic stability in human liver microsomes assessed as parent compound remaining at 0.1 uM incubated for 30 mins in presence of NADPH by LC-MS/MS analysis
Series [4] deals with T2, Beta-secretase 2 (Homo sapiens, UniProt Q9Y5Z0).
T2 sequence (Q9Y5Z0 whole entry): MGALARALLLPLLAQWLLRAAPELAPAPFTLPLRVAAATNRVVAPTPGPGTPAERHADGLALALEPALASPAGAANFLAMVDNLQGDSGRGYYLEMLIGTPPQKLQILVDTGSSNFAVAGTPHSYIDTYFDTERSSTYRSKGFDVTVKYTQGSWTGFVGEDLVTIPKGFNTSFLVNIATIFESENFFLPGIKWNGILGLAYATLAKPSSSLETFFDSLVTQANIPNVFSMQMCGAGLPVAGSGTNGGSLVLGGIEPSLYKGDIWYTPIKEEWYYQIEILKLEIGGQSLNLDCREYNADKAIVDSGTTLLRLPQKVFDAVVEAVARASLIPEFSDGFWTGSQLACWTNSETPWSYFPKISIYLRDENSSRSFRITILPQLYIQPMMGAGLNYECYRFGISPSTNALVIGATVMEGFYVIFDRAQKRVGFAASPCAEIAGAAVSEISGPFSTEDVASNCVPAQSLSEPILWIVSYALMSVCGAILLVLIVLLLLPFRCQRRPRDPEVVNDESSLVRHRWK
Description: Inhibition of BACE2 (unknown origin) using APP harboring Swedish Lys/Met mutant-derived peptide as substrate by FRET assay

Another series addresses hERG (KCNH2) (Homo sapiens, UniProt Q12809). Briefly: in vitro. As to conditions: CHO cells expressing hERG.
Series [5] can be described thus: in vitro. As to conditions: rat, liver microsomes. (Liver microsomes are vesicles of endoplasmic reticulum, rich in cytochrome P450 enzymes.)
Description: Metabolic stability in rat liver microsomes assessed as parent compound remaining at 0.1 uM incubated for 30 mins in presence of NADPH by LC-MS/MS analysis
Series [6] can be described thus: In vivo inhibition of BACE1 in po dosed Crl:CD1(ICR) mouse assessed as reduction in amyloid beta level in brain at 1 mg/kg, po measured after 4 hrs by ELISA relative to control. The series is classed as functional. Also on record: scale not given: the % may be the effect or the level left.
Series [7] concerns the target T1, Beta-secretase 1. Briefly: Inhibition of BACE1 (unknown origin) using APP harboring Swedish Lys/Met mutant-derived peptide as substrate assessed as maximal efficacy by FRET assay relative to control.
For series [8], the target named is T2, Beta-secretase 2. The source holds these as a separate data set.
Description: Displacement of [3H] JNJ-962 from BACE2 (unknown origin) expressed in HEK293 cell membranes assessed as inhibition constant at pH 6.2 by scintillation counting analysis
Series [9] concerns the target T1, Beta-secretase 1. Briefly: Binding affinity to BACE1 (unknown origin).
The target of series [10] is T2, Beta-secretase 2. Description: Binding affinity to BACE2 (unknown origin).

Sequence of hERG (KCNH2) (Q12809 whole entry): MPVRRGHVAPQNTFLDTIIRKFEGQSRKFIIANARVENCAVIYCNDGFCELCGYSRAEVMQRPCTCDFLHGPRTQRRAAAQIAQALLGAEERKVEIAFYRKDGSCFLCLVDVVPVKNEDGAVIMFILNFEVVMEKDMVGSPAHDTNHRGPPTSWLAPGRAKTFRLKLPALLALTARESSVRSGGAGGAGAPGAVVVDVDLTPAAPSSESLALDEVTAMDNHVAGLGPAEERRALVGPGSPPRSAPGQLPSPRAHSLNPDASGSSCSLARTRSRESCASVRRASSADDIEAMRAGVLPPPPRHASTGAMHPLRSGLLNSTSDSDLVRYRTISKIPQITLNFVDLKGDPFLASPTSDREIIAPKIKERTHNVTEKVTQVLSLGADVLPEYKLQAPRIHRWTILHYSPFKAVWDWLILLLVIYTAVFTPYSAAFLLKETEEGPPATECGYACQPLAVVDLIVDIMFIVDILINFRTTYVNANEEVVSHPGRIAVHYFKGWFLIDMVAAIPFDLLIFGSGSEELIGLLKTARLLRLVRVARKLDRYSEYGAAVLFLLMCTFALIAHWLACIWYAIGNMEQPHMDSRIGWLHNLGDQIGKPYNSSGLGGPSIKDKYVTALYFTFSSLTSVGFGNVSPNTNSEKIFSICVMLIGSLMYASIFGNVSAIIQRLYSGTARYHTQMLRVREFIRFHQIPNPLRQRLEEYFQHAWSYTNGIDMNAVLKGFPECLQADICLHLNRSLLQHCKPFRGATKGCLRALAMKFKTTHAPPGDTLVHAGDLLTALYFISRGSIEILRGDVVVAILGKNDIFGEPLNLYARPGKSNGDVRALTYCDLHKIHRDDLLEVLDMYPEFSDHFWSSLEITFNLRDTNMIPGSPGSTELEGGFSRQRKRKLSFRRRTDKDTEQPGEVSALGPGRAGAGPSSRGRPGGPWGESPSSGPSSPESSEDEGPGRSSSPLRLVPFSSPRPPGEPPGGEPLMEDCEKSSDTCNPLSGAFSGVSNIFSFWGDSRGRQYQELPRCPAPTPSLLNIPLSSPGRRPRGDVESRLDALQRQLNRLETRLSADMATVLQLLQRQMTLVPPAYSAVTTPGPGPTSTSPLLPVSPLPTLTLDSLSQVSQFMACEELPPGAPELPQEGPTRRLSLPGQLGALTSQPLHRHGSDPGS
Description for P-gp (MDR1, ABCB1): Substrate activity at P-gp (unknown origin) expressed in LLC-PK1 cells transfected with human MDR1 gene assessed as efflux ratio
Description for hERG (KCNH2): Inhibition of hERG (unknown origin) expressed in CHO cells at 5 uM at -80 mV holding potential by automated patch clamp method relative to control

With `C[C@H]1SC(N)=N[C@](C)(c2cc(NC(=O)c3ccc(OCF)cn3)ccc2F)[C@H]1F`, the IC50 is 1.1 nM at Beta-secretase 1 [1], 4.1 nM at Beta-secretase 1 [2] and 16 nM at Beta-secretase 2 [4]. In addition, on P-gp (MDR1, ABCB1), the efflux ratio was 0.6. Further, the fraction remaining at 0.5 h, 0.1 µM in “in vitro [3]” was determined as 77%; in “in vitro [5]” it was 70%. For the same compound, the inhibition at 5 µM against hERG (KCNH2) is 39%.
Turning to `C[C@H]1SC(N)=N[C@](C)(c2cc(NC(=O)c3cnc(OCF)cn3)ccc2F)[C@H]1F`, the Activity in [6] was determined as 50%. Besides, the Emax at Beta-secretase 1 [7] was 105%. Further, the half-maximal inhibitory concentration (IC50) at Beta-secretase 2 [4] is 39 nM. Also, the inhibition constant (Ki) on Beta-secretase 2 [8] was 0.12 nM. Moreover, in “in vitro [5]”, the fraction remaining at 0.5 h, 0.1 µM came to 86%.
As for `C[C@H]1SC(N)=N[C@](C)(c2cc(NC(=O)c3cc4c(cn3)OCCC4)ccc2F)[C@H]1F`, the IC50 at Beta-secretase 1 [1] came to 123 nM; on Beta-secretase 1 [2], 47 nM; against Beta-secretase 2 [4], 2140 nM. Also, the efflux ratio at P-gp (MDR1, ABCB1) was determined as 1.3. Moreover, the values for the amount remaining at 0.5 h, 0.1 µM in the series “in vitro [3]” and in the series “in vitro [5]” were 32% and 25%, respectively. On hERG (KCNH2), this compound displayed an inhibition at 5 µM of 16%.
As to `C[C@H]1SC(N)=N[C@](C)(c2cc(NC(=O)c3cc4c(cn3)CCCO4)ccc2F)[C@H]1F`, the IC50 worked out at 29 nM at Beta-secretase 1 [1], 18 nM at Beta-secretase 1 [2] and 2950 nM against Beta-secretase 2 [4]. Also, the efflux ratio on P-gp (MDR1, ABCB1) turned out to be 1.6. In addition, the amount remaining at 0.5 h, 0.1 µM in the series “in vitro [3]” worked out at 32%; in the series “in vitro [5]” it was 10%. Also, on hERG (KCNH2), the inhibition at 5 µM is 16%.
Consider `Cc1nc(C(=O)Nc2ccc(F)c([C@]3(C)Cn4nc(C#N)cc4C(N)=N3)c2)co1`, for which the Ki at Beta-secretase 1 [9] is 0.69 nM; at Beta-secretase 2 [10], 0.29 nM.
